These results are taken from patent publication US9943497B2, “Pharmaceutical composition for preventing or treating pulmonary fibrosis” (GACHON UNIVERSITY OF INDUSTRY-ACADEMIC COOPERATION …, priority 2013, dated 2018).

Molecules are shown by their SMILES.

What all share (format): in vivo
In test [1] the test system is pulmonary fibrosis induced by administration of Bleomycin (BLM). In words: Histological examination (H&E and Masson-trichrome staining, Image J) of lung tissue in pulmonary fibrosis-induced animals. As to conditions: BLM-treated C57BL/6 mice; oral, every day; SFN 50 μg/kg, Met 25 mg/kg, singly or together; lung tissue at 28 days; vs BLM alone. How it is done: In detail, C57BL/6 mice were administered with combination of BLM, SFN and metformin (Met) which is one of BG agents, and control groups and experimental groups were prepared: a control group that was orally administered with sterile physiological saline (SA) and orally administered with distilled water; an experimental group (BLM) that was administered with BLM and orally administered with distilled water; an experimental group (BLM+SFN) that was administered with BLM and orally administered with 50 μg/kg of SFN; an experimental group (BLM+MET) that was administered with BLM and orally administered with […] of Met; and an experimental group (BLM+SFN+MET) that was administered with BLM and orally administered with 50 μg/kg of SFN and 25 mg/kg of Met. […] The fixed lung tissues were stained by the H&E staining method and the Masson-trichrome staining method, and the stained lung tissues were evaluated by Image J assay to assess and compare lung damage and lung fibrosis (FIGS. 1a to 1c).

Test [2] has as its system TGF-β1 (transforming growth factor β1). In words: Western blot analysis for TGF-β1 in lung tissue and serum samples. Particulars: BLM-treated C57BL/6 mice; oral, every day; SFN 50 μg/kg, Met 25 mg/kg, singly or together; lung tissue and serum at 28 days; vs BLM alone. In general terms: In western blotting, separated proteins are transferred to a membrane and probed.
Method: (§1) In detail, C57BL/6 mice were administered with combination of BLM, SFN and metformin (Met) which is one of BG agents, and control groups and experimental groups were prepared: a control group that was orally administered with sterile physiological saline (SA) and orally administered with distilled water; an experimental group (BLM) that was administered with BLM and orally administered with distilled water; an experimental group (BLM+SFN) that was administered with BLM and orally administered with 50 μg/kg of SFN; an experimental group (BLM+MET) that was administered with BLM and orally administered with 25 mg/hg of Met; and an experimental group (BLM+SFN+MET) that was administered with BLM and orally administered with 50 μg/kg of SFN and 25 mg/kg of Met. At this time, C57BL/6 mice were administered with 2.5 unit of BLM by intratracheal injection under anesthesia at the experiment initiation day and 14 days, and the mice were administered with SFN and Met every day during the experimental period from the next day after the first administration of BLM, and the mice of the control group and experimental groups were raised for 28 days after the experiment initiation day.
The animal models of the control group and the experimental groups that were prepared in Example 1 and raised for 28 days were sacrificed. The lung tissues and serum samples were obtained from these animal models. […]
For test [3], the system named is fibronectin. Description: Western blot analysis for fibronectin in lung tissue and serum samples. Particulars: BLM-treated C57BL/6 mice; oral, every day; SFN 50 μg/kg, Met 25 mg/kg, singly or together; lung tissue and serum at 28 days; vs BLM alone.
Method: as §1
(§2) The lung tissues and serum samples were obtained from these animal models. […]
Test [4] has as its system AGE (advanced glycation end products). Description: Western blot analysis, Ponceau staining and ELISA for AGE in lung tissue and serum samples. As to conditions: BLM-treated C57BL/6 mice; oral, every day; SFN 50 μg/kg, Met 25 mg/kg, singly or together; lung tissue and serum at 28 days; vs BLM alone.
Method: as §1, §2

With `CN(C)C(=N)N=C(N)N` [Met, metformin], the “level of fibrous tissue (damaged fibrous regions, H&E and Masson-trichrome staining)” value in test [1] was “slightly reduced”. Besides, the “TGF-β1 levels (Western blot)” value in test [2] is on record as “reduced TGF-β1 levels”. Besides, in test [3], the “fibronectin levels (Western blot)” value is listed as “reduced fibronectin levels”. In test [4], the “AGE level (Western blot, ELISA)” value is listed as “slightly reduced AGE level”.
With `C[S+]([O-])CCCCN=C=S` (centres unmarked) [SFN, sulforaphane], the “level of fibrous tissue (damaged fibrous regions, H&E and Masson-trichrome staining)” value in test [1] is “statistically significant reduction”. In test [2], the “TGF-β1 levels (Western blot)” value is on record as “reduced TGF-β1 levels”. In test [3], the “fibronectin levels (Western blot)” value is “reduced fibronectin levels”. Besides, the “AGE level (Western blot, ELISA)” value in test [4] is recorded as “reduced”.
